In brackets after ≈: the same amount, converted by molar mass. One block for each compound: values may come before it.
What was measured:
Assay type in all cases: biochemical, Rhynchophorus ferrugineus
[1] = test system: total proteases of R. ferrugineus midgut; experiment: Total proteolytic enzyme activity (azocasein) in 4th instar larval midgut homogenate; settings: for IC50 against total proteases: in vitro, midgut of 4th instar larvae; for Specific activity, Total Proteases: control 25.83 ± 0.45
Description: Protein determination was carried out according to the Lowry method. Total proteolytic enzyme activity using azocasein was assessed in the 4th midgut instars larvae homogenate of R. ferrugineus according to Olga et al., [42] with modifications. The 4th midgut larvae homogenates of lab strain (10 larvae) were pulled out gently, excised, and washed using a saline solution (0.9% (w/v) NaCl) repeatedly and then homogenized using 500 µL of an assay buffer. The midgut instar was homogenized in 500 µL of a protease assay buffer [50 mM HEPS (N-2-hydroxyelthyl piperazin-N′-2-ehtanesulphonic acid), pH 8.0, 5 mM dithiothreitol (DTT) and 0.1% (v/v) Triton X-100]. The reserve homogenates that were obtained from a previous step were centrifuged at 5000× g for 30 min using a Sigma 3k30 cooling centrifuge. The supernatants were used for estimation of the total proteolytic enzyme activity and protein concentration. Ten microliters of supernatant per assay was incubated in a total volume of 60 µL of assay buffer (pH 8) for 20 min at 37 °C before the addition of 200 µL of azocasien (2%, w/v in an assay buffer).
In all cases, enzyme samples of 10 μL, hydro distillate extract from the cell suspension after 40 days, and pure compounds (thymol, estragole, p-cymene, γ-terpinene, linalool, β-terpineol, ocimene, eugenol, 1,8-cineole, β-Caryophyllene, and germacrene D) (50, 100, 500, 1000, and 5000 mg/L) were pre-incubated together for 10 min. Substrate was then added to start the reaction (20 min for Leupeptin). The reaction lasted for 180 min at 37 °C and was then stopped using 300 µL of cold 10% (v/v) trichloroacetic acid (TCA). The reaction mixture was centrifuged at 5000× g for 20 min using the Sigma 3k30 cooling centrifuge. Ten microliters of NaOH (10 N) was added to the supernatant, and absorbency at 450 nm was measured using an ELISA plate reader. An assay mixture without an enzyme was used as a blank, the specific activity of total proteolytic enzymes was calculated as OD450. mg^−1·protein^−1·h^−1, and a blank sample was determined without an enzyme solution.
(§1) Specific protease inhibitors were added to the reactions of proteolytic activity determination assays, and the inhibitors were: PMSF, a general serine proteinase inhibitor; TLCK, a trypsin-like serine proteinase inhibitor; TPCK, a chymotrypsin-like serine proteinase inhibitor; an iodoacetic acid-like cysteine proteinase inhibitor; an EDTA-like metalloproteinase inhibitor; and leupeptin, a general proteinase inhibitor. The 4th midgut larval homogenates of a lab strain were prepared as described above in the assay for enzyme activity determination. The inhibition assay was carried out on a microplate assay as described above. A series of inhibitor concentrations was prepared in order to establish the maximum inhibition by each inhibitor. The leupeptin (0.01, 0.05, 0.1, and 1.0 mM), PMSF (0.1, 1.0, 10, and 50 mM), TLCK and TPCK (0.01, 0.05, 0.1, 1, 50, and 100 mM), EDTA (0.1, 1, 10, 50, and 100 mM), and iodoacetic acid concentrations (0.01, 0.05, 0.1, and 1 mM) were dissolved in the assay buffers.
(§2) To identify the proteases present in the R. ferrugineus 4th midgut larval instar homogenate preparations, different mechanistic class inhibitors were tested. In all protease types, enzyme samples of 10 µL and inhibitors or extracts from the cell suspension after 40 days or pure compounds (thymol, p-cymene, γ-terpinene, β-caryophyllene, linalool, estragole, β-terpineol, ocimene, 1,8-cineole, germacrene D, and eugenol) (1, 10, 50, 100, 500, 1000, and 5000 mg/L) were pre-incubated for 10 min before adding the substrate. An assay mixture without inhibitors was used as control. Absorbance was measured using an ELISA plate reader at different nm according to the type of enzymes. Percent activity of the control for each inhibitor was calculated to each enzyme.

[2] = biological target: elastase-like proteinase of R. ferrugineus midgut; experiment: Elastase-like serine proteinase specific activity assay (SAAPLpNA) in 4th instar midgut homogenate; settings: for IC50 against elastase: in vitro, midgut of 4th instar larvae; for Specific activity, Elastase: control 8.23 ± 0.02
Description: (§3) Serine proteinase specific activities were assayed, as described by Olga et al. with modifications, using a rapid microplate assay with synthetic substrates in 150 µL reaction mixtures containing a serine protease assay buffer (100 mM Tris-HCl, pH 8.1). Na-benzoyl-L-arginine ρ-nitroanilide (BAρNA) was evaluated for trypsin-like proteinases, N-succinyl-ala-alapro-leucine ρ-nitroanilide (SAAPLρNA) for elastase-like proteinases, and N-succinyl-ala-ala-pro-phenylalanine ρ-nitroanilide (SAAPFρNA) for chymotrypsin-like proteinases.
(§4) The 4th instar midguts were homogenized with the assay buffer. The homogenates of midguts were centrifuged at 8000× g for 30 min using Sigma 3K 30 rotors No. 12158 (Sigma laboratories centrifuge 3K30). Enzyme (10 µL) was added to each plate well (containing 40 µL of buffers) for the assays chymotrypsin-, trypsin-, and elastase-like proteinases. Stock substrates of BAρNA (100 mg/mL in DMSO), SAAPFρNA (100 mg/mL in DMF), and SAAPLρNA (100 mg/mL in DMF) were diluted to 1.0 mg/mL with an assay buffer. The total volume of the substrate was 50 µL. The reaction mixture was immediately incubated at 37 °C for 15 min and then stopped with 50 µL 30% acetic acid. Nitroaniline was measured at 405 nm using an ELISA plate reader. An assay mixture with a denaturation enzyme instead of a live enzyme was used as the blank well. Specific proteinase activities were expressed in OD/min mg protein in triplicate (for three substrates).
as §1, §2

[3] = test system: metalloproteinase of R. ferrugineus midgut; experiment: Metalloproteinase specific activity assay (azocasein) in 4th instar midgut homogenate; settings: control 1.15
Description: The 4th midgut larvae (10 larvae) were pulled out gently, excised, washed with saline solution (0.9% NaCl) repeatedly to remove foodstuff and then homogenized in a 500 µL assay buffer. […] The homogenates were centrifuged at 5000× g for 30 min using the Sigma 3k30 cooling centrifuge. The supernatants were used for estimation of enzyme activity and protein concentration. […] The reaction was stopped with 300 µL of cold 10% trichloroacetic acid (TCA) and proceeded for 180 min at 37 °C. The reaction mixture was centrifuged at 5000× g for 20 min using the Sigma 3k30 cooling centrifuge, 10 µL of 10 N NaOH was added to the supernatant, and absorbance at 450 nm was measured using an ELISA plate reader. An assay mixture without an enzyme was used as the blank. […] Specific protease inhibitors were added to the reactions of proteolytic activity determination assays, and the inhibitors were: PMSF, a general serine proteinase inhibitor; […] The inhibition assay was carried out on a microplate assay as described above. A series of inhibitor concentrations was prepared in order to establish the maximum inhibition by each inhibitor. […] An assay mixture without inhibitors was used as control. Absorbance was measured using an ELISA plate reader at different nm according to the type of enzymes. Percent activity of the control for each inhibitor was calculated to each enzyme.

[4] = test system: cysteine proteinase of R. ferrugineus midgut; experiment: Cysteine proteinase specific activity assay (Z-Phe-Arg-MNA) in 4th instar midgut homogenate; settings: for Specific activity, Cysteine Protease: control 0.59 ± 0.05
Description: as §1, §2

[5] = biological target: trypsin-like serine proteinase of R. ferrugineus midgut; experiment: Trypsin-like serine proteinase specific activity assay (BApNA) in 4th instar midgut homogenate; settings: for IC50 against trypsin-like serine proteinase: in vitro, midgut of 4th instar larvae; for Specific activity, Trypsin: control 4.10 ± 0.11
Description: as §3, §4, §1, §2

[6] = test system: chymotrypsin-like serine proteinase of R. ferrugineus midgut; experiment: Chymotrypsin-like serine proteinase specific activity assay (SAAPFpNA) in 4th instar midgut homogenate; settings: for Specific activity, Chymotrypsin: control 7.35 ± 0.02
Description: as §3, §4, §1, §2

IC50 against elastase [2]: 109.1 µg/mL (≈ 707 µM)
Compound: C=CC(C)(O)CCC=C(C)C (stereo not drawn) [linalool]
IC50 against total proteases [1]: 197 µg/mL (≈ 1280 µM)

Specific activity, Metallo-Protease ([3]; inhibitor 0.1 mM): 0.89 ± 0.11 OD/mg protein min
Specific activity, Metallo-Protease ([3]; inhibitor 1 mM): 0.80 ± 0.11 OD/mg protein min
Specific activity, Metallo-Protease ([3]; inhibitor 10 mM): 0.68 ± 0.11 OD/mg protein min
Specific activity, Metallo-Protease ([3]; inhibitor 50 mM): 0.59 ± 0.1 OD/mg protein min
Specific activity, Metallo-Protease ([3]; inhibitor 100 mM): 0.42 ± 0.1 OD/mg protein min
Compound: O=C([O-])CN(CCN(CC(=O)O)CC(=O)O)CC(=O)[O-].[Na+].[Na+] [EDTA, ethylenediaminetetraacetic acid disodium salt]

Compound: O=C(O)CI [Iodoacetic acid, iodoacetic acid]
Inhibition of midgut instar proteases (in words) ([4]; cysteine protease inhibitor): significantly inhibited
Specific activity, Cysteine Protease ([4]; inhibitor 0.01 mM): 0.28 ± 0.04 OD/mg protein min
Specific activity, Cysteine Protease ([4]; inhibitor 0.05 mM): 0.24 ± 0.05 OD/mg protein min
Specific activity, Cysteine Protease ([4]; inhibitor 0.1 mM): 0.19 ± 0.04 OD/mg protein min
Specific activity, Cysteine Protease ([4]; inhibitor 1 mM): 0.16 ± 0.05 OD/mg protein min

IC50 against trypsin-like serine proteinase [5]: 105.7 µg/mL (≈ 776 µM)
IC50 against elastase [2]: 163 µg/mL (≈ 1200 µM)
Compound: CC1=CCC(C(C)C)=CC1 [γ-terpinene]
IC50 against total proteases [1]: 137.3 µg/mL (≈ 1010 µM)

IC50 against elastase [2]: 195 µg/mL (≈ 1300 µM)
Compound: Cc1ccc(C(C)C)c(O)c1 [thymol]
IC50 against total proteases [1]: 189.7 µg/mL (≈ 1260 µM)

Compound: CC(=O)N[C@@H](CC(C)C)C(=O)N[C@@H](CC(C)C)C(=O)N[C@H](C=O)CCCNC(=N)N [Leupeptin, leupeptin]
Specific activity, Total Proteases ([1]; inhibitor 0.01 mM): 0.12 ± 0.05 OD/mg protein min
Specific activity, Total Proteases ([1]; inhibitor 0.05 mM): 0.08 ± 0.05 OD/mg protein min
Specific activity, Total Proteases ([1]; inhibitor 0.1 mM): 0.07 ± 0.05 OD/mg protein min
Specific activity, Total Proteases ([1]; inhibitor 1 mM): 0.01 ± 0.05 OD/mg protein min

IC50 against trypsin-like serine proteinase [5]: 71.7 µg/mL (≈ 465 µM)
IC50 against elastase [2]: 116 µg/mL (≈ 752 µM)
Compound: CC12CCC(CC1)C(C)(C)O2 [1,8-cineole]
IC50 against total proteases [1]: 92.1 µg/mL (≈ 597 µM)

Compound: Cc1ccc(S(=O)(=O)N[C@@H](Cc2ccccc2)C(=O)CCl)cc1 [TPCK, N,alpha-tosyl-L-phenylalanine chloromethyl ketone]
Inhibition of midgut instar proteases (in words) ([6]; chymotrypsin-like serine proteinase inhibitor): significantly inhibited
Specific activity, Chymotrypsin ([6]; inhibitor 0.01 mM): 6.97 ± 0.03 OD/mg protein min
Specific activity, Chymotrypsin ([6]; inhibitor 0.05 mM): 6.40 ± 0.02 OD/mg protein min
Specific activity, Chymotrypsin ([6]; inhibitor 0.1 mM): 6.18 ± 0.02 OD/mg protein min
Specific activity, Chymotrypsin ([6]; inhibitor 1 mM): 5.28 ± 0.02 OD/mg protein min
Specific activity, Chymotrypsin ([6]; inhibitor 10 mM): 4.87 ± 0.02 OD/mg protein min
Specific activity, Chymotrypsin ([6]; inhibitor 50 mM): 3.64 ± 0.03 OD/mg protein min
Specific activity, Chymotrypsin ([6]; inhibitor 100 mM): 2.02 ± 0.02 OD/mg protein min

Compound: O=S(=O)(F)Cc1ccccc1 [PMSF, phenymethanesulfonyl fluoride]
Inhibition of midgut proteases (in words) ([1]; purified proteases from midgut 4th larval instars): strongly inhibited
Specific activity, Elastase ([2]; inhibitor 0.1 mM): 6.46 ± 0.01 OD/mg protein min
Specific activity, Elastase ([2]; inhibitor 1 mM): 5.26 ± 0.03 OD/mg protein min
Specific activity, Elastase ([2]; inhibitor 10 mM): 4.18 ± 0.03 OD/mg protein min
Specific activity, Elastase ([2]; inhibitor 50 mM): 3.98 ± 0.0 OD/mg protein min

Compound: C=C(C)C1CCC(C)(O)CC1 (stereo not drawn) [β-terpineol]
IC50 against total proteases [1]: 214 µg/mL (≈ 1390 µM)

Compound: Cc1ccc(S(=O)(=O)N[C@@H](CCCCN)C(=O)CCl)cc1 [TLCK, N,p-tosyl-L-lysine chloromethyl ketone]
Specific activity, Trypsin ([5]; inhibitor 0.01 mM): 3.90 ± 0.11 OD/mg protein min
Specific activity, Trypsin ([5]; inhibitor 0.05 mM): 3.82 ± 0.1 OD/mg protein min
Specific activity, Trypsin ([5]; inhibitor 0.1 mM): 3.57 ± 0.1 OD/mg protein min
Specific activity, Trypsin ([5]; inhibitor 1 mM): 3.41 ± 0.09 OD/mg protein min
Specific activity, Trypsin ([5]; inhibitor 10 mM): 3.08 ± 0.1 OD/mg protein min
Specific activity, Trypsin ([5]; inhibitor 50 mM): 2.84 ± 0.09 OD/mg protein min
Specific activity, Trypsin ([5]; inhibitor 100 mM): 2.12 ± 0.1 OD/mg protein min
Inhibition of midgut instar proteases (in words) ([5]; trypsin-like serine proteinase inhibitor): significantly inhibited

IC50 against trypsin-like serine proteinase [5]: 98.4 µg/mL (≈ 733 µM)
IC50 against elastase [2]: 169 µg/mL (≈ 1260 µM)
Compound: Cc1ccc(C(C)C)cc1 [p-cymene]
IC50 against total proteases [1]: 121.8 µg/mL (≈ 907 µM)

Compound: C=CCc1ccc(O)c(OC)c1 [eugenol]
IC50 against total proteases [1]: 99.7 µg/mL (≈ 607 µM)
IC50 against trypsin-like serine proteinase [5]: 74.1 µg/mL (≈ 451 µM)
